What was measured:
Assay in all cases: relative viability (nuclei count vs DMSO), 5 days (fraction); higher = more cells survive
[1] = system: HCC-15
Method in brief: (§1)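 One day after seeding in 1536-well plates, lung cancer cell lines were dosed by pin tool. Dosing was either single-drug or a fixed anchor-drug dose plus five library-drug doses (not always all listed) in √10 steps. After 5 days, nuclei were stained in one fix-and-stain step and counted on 4× images, and relative viability is the nuclei count of treated wells over that of vehicle wells, given as the median of duplicate plates.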

[2] = system: NCI-H358
Method in brief: as §1

[3] = system: NCI-H1792
Method in brief: as §1

[4] = system: NCI-H23
Method in brief: as §1

[5] = system: NCI-H1437
Method in brief: as §1

[6] = system: NCI-H1793
Method in brief: as §1

[7] = system: NCI-H1755
Method in brief: as §1

[8] = system: COR-L23
Method in brief: as §1

[9] = system: NCI-H2342
Method in brief: as §1

[10] = system: PC-14
Method in brief: as §1

[11] = system: NCI-H2347
Method in brief: as §1

[12] = system: 201T
Method in brief: as §1

[13] = system: HCC-366
Method in brief: as §1

[14] = system: NCI-H1915
Method in brief: as §1

[15] = system: NCI-H2009
Method in brief: as §1

[16] = system: NCI-H1395
Method in brief: as §1

[17] = system: EMC-BAC-2
Method in brief: as §1

[18] = system: NCI-H650
Method in brief: as §1

[19] = system: NCI-H2023
Method in brief: as §1

[20] = system: COR-L 105
Method in brief: as §1

[21] = system: SK-MES-1
Method in brief: as §1

[22] = system: LC-2-ad
Method in brief: as §1

**Q.** `Cc1cn(-c2cc(NC(=O)c3ccc(C)c(Nc4nccc(-c5cccnc5)n4)c3)cc(C(F)(F)F)c2)cn1` [Nilotinib] + Nc1ncn([C@H]2C[C@H](O)[C@@H](CO)O2)c(=O)n1 [Decitabine] (partner 2 µM) was tested. Which relative viability ([1]; first compound 0.001 µM) did it give?
**A.** 0.569

**Q.** What about the relative viability ([1]; first compound 0.003162 µM) of the same compound?
**A.** 0.77

**Q.** And the relative viability ([1]; first compound 0.01 µM)?
**A.** 0.718

**Q.** What about the relative viability ([1]; first compound 0.03162 µM) of the same compound?
**A.** 0.481

**Q.** What about the relative viability ([1]; first compound 0.1 µM) of the same compound?
**A.** 0.309

**Q.** What about the relative viability ([2]; first compound 0.001 µM) of the same compound?
**A.** 0.214

**Q.** And the relative viability ([2]; first compound 0.003162 µM)?
**A.** 0.264

**Q.** And the relative viability ([2]; first compound 0.01 µM)?
**A.** 0.229

**Q.** What about the relative viability ([2]; first compound 0.03162 µM) of the same compound?
**A.** 0.195

**Q.** And the relative viability ([2]; first compound 0.1 µM)?
**A.** 0.15

**Q.** What about the relative viability ([3]; first compound 0.001 µM) of the same compound?
**A.** 0.463

**Q.** And the relative viability ([3]; first compound 0.003162 µM)?
**A.** 0.691

**Q.** And the relative viability ([3]; first compound 0.01 µM)?
**A.** 0.66

**Q.** What about the relative viability ([3]; first compound 0.03162 µM) of the same compound?
**A.** 0.403

**Q.** What about the relative viability ([3]; first compound 0.1 µM) of the same compound?
**A.** 0.633

**Q.** What about the relative viability ([4]; first compound 0.001 µM) of the same compound?
**A.** 0.355

**Q.** And the relative viability ([4]; first compound 0.003162 µM)?
**A.** 0.352

**Q.** And the relative viability ([4]; first compound 0.01 µM)?
**A.** 0.344

**Q.** And the relative viability ([4]; first compound 0.03162 µM)?
**A.** 0.351

**Q.** What about the relative viability ([4]; first compound 0.1 µM) of the same compound?
**A.** 0.273

**Q.** What about the relative viability ([5]; first compound 0.001 µM) of the same compound?
**A.** 0.562

**Q.** What about the relative viability ([5]; first compound 0.003162 µM) of the same compound?
**A.** 0.632

**Q.** And the relative viability ([5]; first compound 0.01 µM)?
**A.** 0.625

**Q.** What about the relative viability ([5]; first compound 0.03162 µM) of the same compound?
**A.** 0.545

**Q.** What about the relative viability ([5]; first compound 0.1 µM) of the same compound?
**A.** 0.671

**Q.** What about the relative viability ([6]; first compound 0.001 µM) of the same compound?
**A.** 0.49

**Q.** And the relative viability ([6]; first compound 0.003162 µM)?
**A.** 0.263

**Q.** What about the relative viability ([6]; first compound 0.01 µM) of the same compound?
**A.** 0.87

**Q.** What about the relative viability ([6]; first compound 0.03162 µM) of the same compound?
**A.** 0.708

**Q.** And the relative viability ([6]; first compound 0.1 µM)?
**A.** 0.516

**Q.** What about the relative viability ([7]; first compound 0.001 µM) of the same compound?
**A.** 0.742

**Q.** What about the relative viability ([7]; first compound 0.003162 µM) of the same compound?
**A.** 0.81

**Q.** And the relative viability ([7]; first compound 0.01 µM)?
**A.** 0.78

**Q.** What about the relative viability ([7]; first compound 0.03162 µM) of the same compound?
**A.** 0.961

**Q.** And the relative viability ([7]; first compound 0.1 µM)?
**A.** 0.846

**Q.** And the relative viability ([8]; first compound 0.001 µM)?
**A.** 0.445

**Q.** And the relative viability ([8]; first compound 0.003162 µM)?
**A.** 0.493

**Q.** What about the relative viability ([8]; first compound 0.01 µM) of the same compound?
**A.** 0.464

**Q.** And the relative viability ([8]; first compound 0.03162 µM)?
**A.** 0.482

**Q.** What about the relative viability ([8]; first compound 0.1 µM) of the same compound?
**A.** 0.601

**Q.** And the relative viability ([9]; first compound 0.001 µM)?
**A.** 0.704

**Q.** What about the relative viability ([9]; first compound 0.003162 µM) of the same compound?
**A.** 0.735

**Q.** And the relative viability ([9]; first compound 0.01 µM)?
**A.** 0.666

**Q.** What about the relative viability ([9]; first compound 0.03162 µM) of the same compound?
**A.** 0.591

**Q.** And the relative viability ([9]; first compound 0.1 µM)?
**A.** 0.754

**Q.** And the relative viability ([10]; first compound 0.001 µM)?
**A.** 0.24

**Q.** What about the relative viability ([10]; first compound 0.003162 µM) of the same compound?
**A.** 0.263

**Q.** And the relative viability ([10]; first compound 0.01 µM)?
**A.** 0.27

**Q.** And the relative viability ([10]; first compound 0.03162 µM)?
**A.** 0.304

**Q.** And the relative viability ([10]; first compound 0.1 µM)?
**A.** 0.266

**Q.** And the relative viability ([11]; first compound 0.001 µM)?
**A.** 0.637

**Q.** And the relative viability ([11]; first compound 0.003162 µM)?
**A.** 0.694

**Q.** What about the relative viability ([11]; first compound 0.01 µM) of the same compound?
**A.** 0.718

**Q.** And the relative viability ([11]; first compound 0.03162 µM)?
**A.** 0.626

**Q.** What about the relative viability ([11]; first compound 0.1 µM) of the same compound?
**A.** 0.601

**Q.** And the relative viability ([12]; first compound 0.001 µM)?
**A.** 0.851

**Q.** And the relative viability ([12]; first compound 0.003162 µM)?
**A.** 0.973

**Q.** And the relative viability ([12]; first compound 0.01 µM)?
**A.** 0.944

**Q.** What about the relative viability ([12]; first compound 0.03162 µM) of the same compound?
**A.** 1.01

**Q.** What about the relative viability ([12]; first compound 0.1 µM) of the same compound?
**A.** 0.814

**Q.** What about the relative viability ([13]; first compound 0.001 µM) of the same compound?
**A.** 0.325

**Q.** What about the relative viability ([13]; first compound 0.003162 µM) of the same compound?
**A.** 0.348

**Q.** What about the relative viability ([13]; first compound 0.01 µM) of the same compound?
**A.** 0.41

**Q.** And the relative viability ([13]; first compound 0.03162 µM)?
**A.** 0.445

**Q.** And the relative viability ([13]; first compound 0.1 µM)?
**A.** 0.37

**Q.** And the relative viability ([14]; first compound 0.001 µM)?
**A.** 0.28

**Q.** What about the relative viability ([14]; first compound 0.003162 µM) of the same compound?
**A.** 0.271

**Q.** What about the relative viability ([14]; first compound 0.01 µM) of the same compound?
**A.** 0.255

**Q.** What about the relative viability ([14]; first compound 0.03162 µM) of the same compound?
**A.** 0.318

**Q.** What about the relative viability ([14]; first compound 0.1 µM) of the same compound?
**A.** 0.325

**Q.** What about the relative viability ([15]; first compound 0.001 µM) of the same compound?
**A.** 0.372

**Q.** What about the relative viability ([15]; first compound 0.003162 µM) of the same compound?
**A.** 0.393

**Q.** And the relative viability ([15]; first compound 0.01 µM)?
**A.** 0.412

**Q.** And the relative viability ([15]; first compound 0.03162 µM)?
**A.** 0.406

**Q.** What about the relative viability ([15]; first compound 0.1 µM) of the same compound?
**A.** 0.421

**Q.** And the relative viability ([16]; first compound 0.001 µM)?
**A.** 0.745

**Q.** And the relative viability ([16]; first compound 0.01 µM)?
**A.** 0.798

**Q.** What about the relative viability ([16]; first compound 0.03162 µM) of the same compound?
**A.** 0.707

**Q.** And the relative viability ([16]; first compound 0.1 µM)?
**A.** 0.891

**Q.** What about the relative viability ([17]; first compound 0.001 µM) of the same compound?
**A.** 0.974

**Q.** And the relative viability ([17]; first compound 0.003162 µM)?
**A.** 0.996

**Q.** And the relative viability ([17]; first compound 0.01 µM)?
**A.** 1.02

**Q.** And the relative viability ([17]; first compound 0.03162 µM)?
**A.** 0.94

**Q.** What about the relative viability ([17]; first compound 0.1 µM) of the same compound?
**A.** 1

**Q.** And the relative viability ([18]; first compound 0.001 µM)?
**A.** 0.295

**Q.** And the relative viability ([18]; first compound 0.003162 µM)?
**A.** 0.379

**Q.** What about the relative viability ([18]; first compound 0.01 µM) of the same compound?
**A.** 0.387

**Q.** What about the relative viability ([18]; first compound 0.03162 µM) of the same compound?
**A.** 0.315

**Q.** What about the relative viability ([18]; first compound 0.1 µM) of the same compound?
**A.** 0.306

**Q.** What about the relative viability ([19]; first compound 0.001 µM) of the same compound?
**A.** 0.245

**Q.** And the relative viability ([19]; first compound 0.003162 µM)?
**A.** 0.296

**Q.** And the relative viability ([19]; first compound 0.01 µM)?
**A.** 0.334

**Q.** What about the relative viability ([19]; first compound 0.03162 µM) of the same compound?
**A.** 0.271

**Q.** What about the relative viability ([19]; first compound 0.1 µM) of the same compound?
**A.** 0.298

**Q.** And the relative viability ([20]; first compound 0.001 µM)?
**A.** 0.735

**Q.** And the relative viability ([20]; first compound 0.003162 µM)?
**A.** 0.734

**Q.** What about the relative viability ([20]; first compound 0.01 µM) of the same compound?
**A.** 0.743

**Q.** What about the relative viability ([20]; first compound 0.03162 µM) of the same compound?
**A.** 0.732

**Q.** What about the relative viability ([20]; first compound 0.1 µM) of the same compound?
**A.** 0.751

**Q.** And the relative viability ([21]; first compound 0.001 µM)?
**A.** 0.409

**Q.** What about the relative viability ([21]; first compound 0.003162 µM) of the same compound?
**A.** 0.487

**Q.** What about the relative viability ([21]; first compound 0.01 µM) of the same compound?
**A.** 0.575

**Q.** And the relative viability ([21]; first compound 0.03162 µM)?
**A.** 0.617

**Q.** What about the relative viability ([21]; first compound 0.1 µM) of the same compound?
**A.** 0.46

**Q.** And the relative viability ([22]; first compound 0.001 µM)?
**A.** 0.8

**Q.** What about the relative viability ([22]; first compound 0.003162 µM) of the same compound?
**A.** 0.982

**Q.** What about the relative viability ([22]; first compound 0.01 µM) of the same compound?
**A.** 0.796

**Q.** And the relative viability ([22]; first compound 0.03162 µM)?
**A.** 0.859

**Q.** What about the relative viability ([22]; first compound 0.1 µM) of the same compound?
**A.** 0.803

From the supplement of paper PMC10307832
